The target in one experiment is GCN2 kinase (Homo sapiens, UniProt Q9P2K8). Put plainly: GCN2 enzyme inhibition assay (Transcreener ADP2 fluorescence polarization). The conditions noted are these: Enzyme activity for compounds of Formula IV; Ki(app), 280 μM ATP, 25° C. Format: biochemical. Put shortly:
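Kinase activity is followed as ADP formation, measured by fluorescence polarization, using 4 nM enzyme with 280 μM ATP and 200 μM (RS)7 peptide at pH 7.5 and 25 °C for 1 h. Values come from a non-linear tight-binding fit.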
(In general: Fluorescence polarisation rises when a labelled molecule tumbles more slowly, as on binding a larger partner.)

Experiment [1] has as its target intracellular GCN2 (phosphorylation of the GCN2 substrate eIF2α) (Homo sapiens, UniProt Q9P2K8). Put plainly: GCN2 cellular inhibition assay (AlphaScreen SureFire P-eIF2α Ser51, borrelidin-treated U2OS cells). The experiment is classed as cell-based. The conditions noted are these: compounds of Formula IV; biomarker assay, phosphorylated eIF2α Ser51 in borrelidin-treated U2OS cells. Put shortly:
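Read-out: AlphaScreen SureFire phospho-eIF2α (Ser51) signal in U2OS lysates. Cells get 4-fold compound dilutions (top 40 μM final) plus 10 μM borrelidin, 1 h, 37 °C. Percent inhibition is relative to borrelidin-alone controls.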

Bounds are passed on as bounds.

intracellular GCN2 (phosphorylation of the GCN2 substrate eIF2α), sequence (Q9P2K8 whole entry): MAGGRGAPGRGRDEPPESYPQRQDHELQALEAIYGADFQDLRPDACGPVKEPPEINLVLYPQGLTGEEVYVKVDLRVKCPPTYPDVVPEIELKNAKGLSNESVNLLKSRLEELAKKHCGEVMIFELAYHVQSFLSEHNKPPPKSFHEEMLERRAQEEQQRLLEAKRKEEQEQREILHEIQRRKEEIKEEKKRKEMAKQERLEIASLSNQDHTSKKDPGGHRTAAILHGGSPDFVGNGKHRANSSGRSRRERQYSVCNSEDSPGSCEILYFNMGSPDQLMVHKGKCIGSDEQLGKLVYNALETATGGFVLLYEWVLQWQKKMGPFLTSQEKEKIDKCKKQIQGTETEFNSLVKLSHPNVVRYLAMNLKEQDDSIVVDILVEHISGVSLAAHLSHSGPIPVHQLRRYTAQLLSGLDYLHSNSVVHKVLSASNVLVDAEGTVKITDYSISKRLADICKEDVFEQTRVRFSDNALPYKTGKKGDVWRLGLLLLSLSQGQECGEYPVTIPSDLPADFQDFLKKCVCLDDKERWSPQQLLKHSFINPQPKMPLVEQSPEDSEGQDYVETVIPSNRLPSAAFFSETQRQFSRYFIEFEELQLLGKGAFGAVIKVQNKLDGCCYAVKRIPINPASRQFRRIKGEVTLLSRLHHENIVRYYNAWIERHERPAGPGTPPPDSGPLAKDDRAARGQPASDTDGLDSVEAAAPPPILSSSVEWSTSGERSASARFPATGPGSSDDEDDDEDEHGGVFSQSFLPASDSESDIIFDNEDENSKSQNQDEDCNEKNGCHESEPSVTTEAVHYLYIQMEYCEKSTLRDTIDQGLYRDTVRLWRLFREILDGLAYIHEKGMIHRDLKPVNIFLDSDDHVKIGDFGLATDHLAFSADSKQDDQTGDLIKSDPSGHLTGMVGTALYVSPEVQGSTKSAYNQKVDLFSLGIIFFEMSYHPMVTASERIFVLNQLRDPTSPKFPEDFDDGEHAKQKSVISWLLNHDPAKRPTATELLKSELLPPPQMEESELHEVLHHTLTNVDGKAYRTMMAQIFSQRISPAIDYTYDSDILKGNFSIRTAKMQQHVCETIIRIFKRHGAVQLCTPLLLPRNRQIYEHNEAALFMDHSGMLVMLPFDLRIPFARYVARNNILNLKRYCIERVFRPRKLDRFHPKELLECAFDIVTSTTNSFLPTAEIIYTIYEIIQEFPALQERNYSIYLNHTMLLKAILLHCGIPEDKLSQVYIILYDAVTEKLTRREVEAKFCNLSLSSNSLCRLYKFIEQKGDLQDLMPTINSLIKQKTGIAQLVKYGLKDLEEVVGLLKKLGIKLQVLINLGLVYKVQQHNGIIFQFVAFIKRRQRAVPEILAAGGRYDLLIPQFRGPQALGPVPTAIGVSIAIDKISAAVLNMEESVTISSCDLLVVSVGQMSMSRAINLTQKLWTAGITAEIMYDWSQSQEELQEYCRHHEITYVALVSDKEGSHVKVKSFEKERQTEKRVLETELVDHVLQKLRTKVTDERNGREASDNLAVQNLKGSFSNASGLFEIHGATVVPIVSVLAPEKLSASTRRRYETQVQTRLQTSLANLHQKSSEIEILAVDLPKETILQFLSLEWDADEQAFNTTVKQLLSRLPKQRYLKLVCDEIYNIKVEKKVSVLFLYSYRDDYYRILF
GCN2 kinase, sequence (Q9P2K8 whole entry): as above

In general, IC50 refers to the concentration needed to halve the response being measured. On GCN2 kinase, `CCn1cc(-c2ccnc(-c3cnc4cnc(C(F)F)cn34)n2)cn1` [IV-154, 6-(Difluoromethyl)-3-(4-(1-ethyl-1H-pyrazol-4-yl)pyrimidin-2-yl)imidazo[1,2-a]pyrazine] returned a Ki of 100 to 1000 nM. Further, the IC50 in experiment [1] was greater than 5000 nM.
The matching figures for `NC(=O)Cc1cccc(-c2ccnc(-c3cnc4cnc(C(F)F)cn34)n2)c1` [IV-155, 2-(3-(2-(6-(Difluoromethyl)imidazo[1,2-a]pyrazin-3-yl)pyrimidin-4-yl)phenyl)acetamide]: 100 to 1000 nM and greater than 5000 nM.
The matching figures for `CC(=O)N1CC=C(c2ccnc(-c3cnc4cnc(C(F)F)cn34)n2)CC1` [IV-156, 1-(4-(2-(6-(Difluoromethyl)imidazo[1,2-a]pyrazin-3-yl)pyrimidin-4-yl)-3,6-dihydropyridin-1(2H)-yl)ethan-1-one]: 100 to 1000 nM and greater than 5000 nM.
Take `N#CCc1cccc(-c2ccnc(-c3cnc4cnc(C(F)F)cn34)n2)c1` [IV-157, 2-(3-(2-(6-(Difluoromethyl)imidazo[1,2-a]pyrazin-3-yl)pyrimidin-4-yl)phenyl)acetonitrile]: the Ki at GCN2 kinase was 100 to 1000 nM. In addition, in experiment [1], the IC50 is greater than 5000 nM.
At GCN2 kinase, `NCc1cccc(-c2ccnc(-c3cnc4cnc(C(F)F)cn34)n2)c1` [IV-159, (3-(2-(6-(Difluoromethyl)imidazo[1,2-a]pyrazin-3-yl)pyrimidin-4-yl)phenyl)methanamine] showed a Ki of 100 to 1000 nM. Also, the IC50 in experiment [1] is greater than 5000 nM.
The matching figures for `Oc1cccc(-c2ccnc(-c3cnc4cnc(C(F)F)cn34)n2)c1` [IV-161, 3-(2-(6-(Difluoromethyl)imidazo[1,2-a]pyrazin-3-yl)pyrimidin-4-yl)phenol]: 100 to 1000 nM and greater than 5000 nM.
The matching figures for `OCc1cccc(-c2ccnc(-c3cnc4cnc(C(F)F)cn34)n2)c1` [IV-162, (3-(2-(6-(Difluoromethyl)imidazo[1,2-a]pyrazin-3-yl)pyrimidin-4-yl)phenyl)methanol]: 100 to 1000 nM and greater than 5000 nM.
The matching figures for `CNS(=O)(=O)C1CCCN(c2ccnc(-c3cnc4cnc(C(F)F)cn34)n2)C1` (stereo not drawn) [IV-164, 1-(2-(6-(Difluoromethyl)imidazo[1,2-a]pyrazin-3-yl)pyrimidin-4-yl)-N-methylpiperidine-3-sulfonamide]: 100 to 1000 nM and greater than 5000 nM.
`CS(=O)(=O)C1CCCN(c2ccnc(-c3cnc4cnc(C(F)F)cn34)n2)C1` (stereo not drawn) [IV-165, 6-(Difluoromethyl)-3-(4-(3-(methylsulfonyl)piperidin-1-yl)pyrimidin-2-yl)imidazo[1,2-a]pyrazine] gave a Ki on GCN2 kinase of 100 to 1000 nM. This compound also showed an IC50 in experiment [1] greater than 5000 nM.
`CN1CCN(Cc2cccc(-c3ccnc(-c4cnc5cnc(C(F)F)cn45)n3)c2)CC1` [IV-166, 6-(Difluoromethyl)-3-(4-(3-((4-methylpiperazin-1-yl)methyl)phenyl)pyrimidin-2-yl)imidazo[1,2-a]pyrazine] gave a Ki on GCN2 kinase of 100 to 1000 nM. Besides, in experiment [1], the IC50 was greater than 5000 nM.
In turn, `NCC(=O)Nc1cccc(-c2ccnc(-c3cnc4cnc(C(F)F)cn34)n2)c1` [IV-167, 2-Amino-N-(3-(2-(6-(difluoromethyl)imidazo[1,2-a]pyrazin-3-yl)pyrimidin-4-yl)phenyl)acetamide] showed a Ki on GCN2 kinase of 100 to 1000 nM. In experiment [1], this compound had an IC50 greater than 5000 nM.
The matching figures for `CN(C1CCCN(c2ccnc(-c3cnc4cnc(C(F)F)cn34)n2)C1)S(C)(=O)=O` (stereo not drawn) [IV-168, N-(1-(2-(6-(Difluoromethyl)imidazo[1,2-a]pyrazin-3-yl)pyrimidin-4-yl)piperidin-3-yl)-N-methylmethanesulfonamide]: 100 to 1000 nM and greater than 5000 nM.
The matching figures for `CS(=O)(=O)NC1CCCN(c2ccnc(-c3cnc4cnc(C(F)F)cn34)n2)C1` (stereo not drawn) [IV-169, N-(1-(2-(6-(Difluoromethyl)imidazo[1,2-a]pyrazin-3-yl)pyrimidin-4-yl)piperidin-3-yl)methanesulfonamide]: 100 to 1000 nM and greater than 5000 nM.
`CN(C)S(=O)(=O)C1CCCN(c2ccnc(-c3cnc4cnc(C(F)F)cn34)n2)C1` (stereo not drawn) [IV-170, 1-(2-(6-(Difluoromethyl)imidazo[1,2-a]pyrazin-3-yl)pyrimidin-4-yl)-N,N-dimethylpiperidine-3-sulfonamide] came in with a Ki at GCN2 kinase of 100 to 1000 nM. In addition, the IC50 in experiment [1] was greater than 5000 nM.
The matching figures for `O=S(=O)(NC1CCCC1)C1CCCN(c2ccnc(-c3cnc4cnc(C(F)F)cn34)n2)C1` (stereo not drawn) [IV-171, N-Cyclopentyl-1-(2-(6-(difluoromethyl)imidazo[1,2-a]pyrazin-3-yl)pyrimidin-4-yl)piperidine-3-sulfonamide]: 100 to 1000 nM and greater than 5000 nM.
Consider `O=S(=O)(C1CCCN(c2ccnc(-c3cnc4cnc(C(F)F)cn34)n2)C1)N1CCOCC1` (stereo not drawn) [IV-172, 4-((1-(2-(6-(Difluoromethyl)imidazo[1,2-a]pyrazin-3-yl)pyrimidin-4-yl)piperidin-3-yl)sulfonyl)morpholine], for which the Ki at GCN2 kinase fell in the range of 100 to 1000 nM. In experiment [1], this compound gave a concentration for half-maximal inhibition (IC50) greater than 5000 nM.
Consider `FC(F)c1cn2c(-c3nccc(N4CCCC(c5cscn5)C4)n3)cnc2cn1` (stereo not drawn) [IV-174, 4-(1-(2-(6-(Difluoromethyl)imidazo[1,2-a]pyrazin-3-yl)pyrimidin-4-yl)piperidin-3-yl)thiazole], for which the Ki on GCN2 kinase lay within 100 to 1000 nM. Besides, the 50% inhibitory concentration (IC50) in experiment [1] was greater than 5000 nM.
On GCN2 kinase, `OCc1ccc(-c2ccnc(-c3cnc4cnc(C(F)F)cn34)n2)s1` [IV-175, (5-(2-(6-(Difluoromethyl)imidazo[1,2-a]pyrazin-3-yl)pyrimidin-4-yl)thiophen-2-yl)methanol] gave a Ki of 100 to 1000 nM. The compound further yielded an IC50 in experiment [1] greater than 5000 nM.
`NC(=O)c1ccc(F)c(-c2ccnc(-c3cnc4cnc(C(F)F)cn34)n2)c1` [IV-176, 3-(2-(6-(Difluoromethyl)imidazo[1,2-a]pyrazin-3-yl)pyrimidin-4-yl)-4-fluorobenzamide] yielded a Ki at GCN2 kinase of 100 to 1000 nM. In experiment [1], this compound displayed an IC50 greater than 5000 nM.
At GCN2 kinase, `NS(=O)(=O)C1CCCN(c2ccnc(-c3cnc4cnc(C(F)F)cn34)n2)C1` (stereo not drawn) [IV-177, 1-(2-(6-(Difluoromethyl)imidazo[1,2-a]pyrazin-3-yl)pyrimidin-4-yl)piperidine-3-sulfonamide] had a Ki of 100 to 1000 nM. Further, the IC50 in experiment [1] is greater than 5000 nM.
For `NS(=O)(=O)N[C@H]1CCCN(c2ccnc(-c3cnc4cnc(C(F)F)cn34)n2)C1` [IV-179, 6-(Difluoromethyl)-3-[4-[(3S)-3-(sulfamoylamino)-1-piperidyl]pyrimidin-2-yl]imidazo[1,2-a]pyrazine], the Ki at GCN2 kinase lay within 100 to 1000 nM. Moreover, the IC50 in experiment [1] is greater than 5000 nM.
The matching figures for `NS(=O)(=O)N[C@@H]1CCCN(c2ccnc(-c3cnc4cnc(C(F)F)cn34)n2)C1` [IV-181, 6-(Difluoromethyl)-3-[4-[(3R)-3-(sulfamoylamino)-1-piperidyl]pyrimidin-2-yl]imidazo[1,2-a]pyrazine]: 100 to 1000 nM and greater than 5000 nM.
The matching figures for `CC(=O)N1CCN(c2nccc(-c3cnc4cnc(C(N)=O)cn34)n2)CC1` [IV-182, 3-(2-(4-Acetylpiperazin-1-yl)pyrimidin-4-yl)imidazo[1,2-a]pyrazine-6-carboxamide]: 10 to 100 nM and 500 to 5000 nM.
Compound `CC(=O)N1CCN(c2cncc(-c3cnc4cnc(C(N)=O)cn34)n2)CC1` [IV-183, 3-(6-(4-Acetylpiperazin-1-yl)pyrazin-2-yl)imidazo[1,2-a]pyrazine-6-carboxamide] yielded a Ki at GCN2 kinase of 100 to 1000 nM. The same compound registered an IC50 in experiment [1] greater than 5000 nM.
